Patent US7939265B2, “Agents for and method of quantifying binding” (Badrilla Limited, priority 2004, dated 2011)
Where no end group is shown, it is not given here. [ ]: non-standard residue; d: D form. pS = N[C@@H](COP(=O)(O)O)C(=O)O

Target: polyclonal antiserum SERCA PS-38
Assay: Peptide inhibition of antiserum SERCA PS-38 binding to antigen
Parameters: species or system rabbit
Conditions: competition against polyclonal antiserum SERCA PS-38
Experimental: Phosphorylated Ca^2+-ATPase peptide on Ser-38 residue (^31KLKERWGS (PO4)NEL^41) was prepared by the CaMKII phosphorylation of peptide ^31KLKERWGSNEL^41. The phosphopeptide was purified to homogeneity by reverse phase high performance liquid chromatography. Peptide was conjugated to keyhole limpet haemocyanin (KLH) using carbodiimide cross linkage (3) and dialysed extensively against buffer (50 mM Tris-HCl pH 7.2, 150 mM NaCl). Adult New Zealand White rabbits were immunised with ˜150 μg KLH and attached peptide at 6 weeks intervals and immune serum collected 11 days after immunisations. Serum was prepared and stored at −70° C. A polyclonal antiserum is described herein: SERCA PS-38 raised to the phosphorylated peptide.
The phosphorylation of SERCA2 on Ser-38 has been described as a regulatory feature capable of very significant activation of Ca2+-ATPase activity. This site, although unique to SERCA2, is contained within a segment of the protein which is highly conserved between SERCA1 and SERCA2 particularly from residue 39 onwards. […] By analogy with SERCA1, for which two high resolution structures exist the Ser-38 site of phosphorylation on SERCA2 is predicted to be in a surface exposed, highly mobile segment of the protein. […]

IC50 (read-out: inhibition of antibody binding to antigen (IC50)) [µM]	Substance	interference with antibody:antigen recognition
0.018	31KLKERWGS(PO4)NEL41 (KLKERWG[pS]NEL; UniProt P16615 31-41, looked up, fragment) [phosphopeptide]	
	31KLKERWGSNEL41 (UniProt P16615 31-41, looked up, fragment) [dephosphorylated peptide, equivalent dephosphorylated SERCA2a Ser-38 peptide]	unable to interfere with antibody:antigen recognition
